Data taken from US20150297619A1, “METHODS AND COMPOSITIONS FOR PRESERVING THE MUCOSAL BARRIER” (priority 2014, published 2015).

Tests used:
[1] = tested on: mucin 13, occludin, and E-cadherin; assay: Immunoblots of epithelial barrier proteins in post-ischemic intestinal homogenates (segment 7); parameters: species or system rat; conditions: ileum segment 7, two hour ex vivo ischemia
Protocol: Immunoblotting—To determine whether selected epithelial barrier proteins were degraded during ischemia, pre- and post-ischemic intestinal tissue homogenates (segment 7) were analyzed for relative levels of mucin 13, occludin, and E-cadherin.
Tissues were homogenized for immunoblot analysis in buffer (CelLytic, Sigma-Aldrich) with protease inhibitor cocktail (HALT, Thermo Scientific, 1:100 dilution) and centrifuged (1×10^4 g, 20 min). Protein concentration in supernatants was determined (BCA, ThermoScientific). To separate proteins by gel electrophoresis, 30 μg of protein/well were loaded in 8 or 12% resolving gels with 4% stacking gels and transferred to nitrocellulose membranes (Bio-Rad, Hercules, Calif.). Membranes were blocked for one hour with either 5% bovine serum albumin (BSA) or 5% nonfat milk in tris-buffered saline with 0.5% Tween-20 (TBS-T). Primary antibodies diluted in 1% BSA or 1% nonfat milk against mucin 13 (1:1000, extracellular domain, sc-66973 Santa Cruz Biotechnology, Santa Cruz, Calif.), E-cadherin (1:1000, intracellular domain, 33-4000, Invitrogen), occludin (1:1000, intracellular domain, 33-1500, Invitrogen), pancreatic trypsin (1:1000, sc-137077 Santa Cruz Biotechnology), or β-actin (1:1000, sc-130301, Santa Cruz Biotechnology) were incubated overnight at 4° C. After incubation, membranes were washed with TBS-T (3×, 10 min) before addition of goat anti-rabbit or rabbit anti-mouse secondary antibodies (Santa Cruz Biotechnology) diluted 1:1000 in TBS-T. Following secondary antibody incubation (60 min), the membranes were washed with TBS-T (3×) and developed.

hemorrhagic shock = assay: Hemorrhagic shock with enteral/IV/IP treatments: intestine, plasma and lung injury (Example 2); assay type: in vivo, rat
Protocol: Adult male Sprague Dawley rats (mean±standard deviation (SD) body weight 340±60 g, N=64, Harlan, Indianapolis, Ind.) were allowed food and water ad libitum prior to surgery. Rats were administered general anesthesia (xylazine, 4 mg/kg; ketamine 75 mg/kg IM) and remained anesthetized throughout the experiment. At the termination of experiments, rats were euthanized by infusion of B-Euthanasia IV (120 mg/kg). The femoral artery and vein were cannulated. Systolic, diastolic, heart rate, and mean arterial pressure (MAP) were recorded throughout the procedure using LabChart (AD Instruments, Dunedin, New Zealand).
Hemorrhagic Shock (HS) with Removal of Luminal Contents—Animals were grouped into no-HS (No-HS), HS with intestinal luminal contents flushed (HS-F), and HS without intestinal flush (HS-NF). No-HS animals were immediately sacrificed for tissue collection following cannulation. All other animals were subject to laparotomy before the intestine was exposed and gross morphology was photographically recorded. Enteral treatments were administered to the intestine before returning to the peritoneal cavity (Table 1). IV/IP injections were delivered following the intestinal injections.
Following the intestinal preparations, the animals were heparinized to minimize clotting in catheters and in shed blood samples (1 U/mL of calculated blood volume i.v.; assuming 6 mL blood volume per 100 g total body weight) before onset of hemorrhage. MAP was reduced to 30 mmHg by withdrawal of blood through the venous catheter (0.4 mL/min) with a 5 mL syringe. The initial 1 mL of blood drawn was collected, centrifuged (1000 g, 5 min), and the plasma was immediately frozen at […] for further analysis. The arterial pressure was monitored and adjusted by withdrawal/return of blood over the 90-min ischemic period. At the end of ischemia, the shed blood was returned to the animals (0.5 mL/min) plus 1 mL of saline (to replace the 1 mL of blood collected before shock).
Gross morphology images of the intestine were captured at the end of the reperfusion period. Post-HS blood was collected through the arterial catheter, spun (1000 g, 5 min), and the plasma was immediately frozen at […]. The animals were then euthanized and lung and jejunum specimen were snap frozen for homogenization or embedded in optimum cutting temperature (O.C.T.) (Saukura, Leiden, the Netherlands) for histological sectioning. Jejunum was chosen for analysis, as more intestinal hemorrhage is typically seen there than in the ileum in models of HS.
After hemorrhagic shock, bronchoalveolar lavage fluid (BALF) was collected by inserting an 18 gauge blunt needle into the left main bronchus of the left lung. The lunch was photographed to assess gross morphological damage. The images were blindly assessed for macroscopic lung damage. Scoring was as follows: 0, no visible lung damage and pink in color; 1, mostly pink in color with some dark red lesions starting to form around the central part of the lung near the trachea; 2, some pink color with more lesions forming and spreading throughout the lung; 3, dark red lesions through the majority of the lung surface; 4, complete lung damage in all parts of the organ surface.
To collect BALF fluid, saline (˜2.0 ml/lavage) was injected and recovered three times before centrifugation (1000 g, 5 min). Following the third wash, the lung was injected with O.C.T., embedded, and frozen. The total volume of recovered BALF fluid was measured and the fraction of saline recovered versus the amount injected was used to normalize all measurements.
Intestinal Hemorrhage—Segments of jejunum were mechanically homogenized by weight (10 ml per 1 g; 18,000 g, 20 min; stored at −80° C.) in 0.5% hexadecyltrimethyl-ammonium bromide (HTAB) in PBS (pH 6.0). Any luminal content present in the segment was included in the weighing and homogenization. […]

| Structure (SMILES) | E-cadherin levels (immunoblot) [1] | mucin 13 levels (immunoblot) [1] | occludin levels (immunoblot) [1] | MPO activity of intestinal homogenates (hemorrhagic shock; after HS) | gross morphology of the intestine (microhemorrhages) (hemorrhagic shock; after HS) | macroscopic lung injury (lung injury score) (hemorrhagic shock; after HS) | plasma MMP-9 and neutrophil derived pro-MMP-9 activity (hemorrhagic shock; post-HS plasma, gel zymography) | lung VE-cadherin levels (hemorrhagic shock; after HS, immunoblot) | lung VEGFR-2 levels (hemorrhagic shock; after HS, immunoblot) |
| --- | --- | --- | --- | --- | --- | --- | --- | --- | --- |
| O=C[C@H](O)[C@@H](O)[C@H](O)[C@H](O)CO [Glucose, glucose] | decreased irrespective of the presence of glucose | preserved | preserved | tended to be lower | microhemorrhages most severely | trend in reduction | significantly more activity compared to HS+SAL | – | – |
| NC[C@H]1CC[C@H](C(=O)O)CC1 [tranexamic acid] | – | able to preserve mucin 13 levels | prevented a significant decrease in occludin | tended to be lower | fewer regions with microhemorrhages | – | – | significantly reduced | maintained |
